Drawing on patent US12384789B2, “Compounds for treating Huntington's disease” (PTC Therapeutics, Inc., priority 2017, dated 2025), this text covers IC50 for 27 compounds.

In general, IC50 refers to the point on the concentration scale where inhibition reaches its midpoint.

Each structure is given as a SMILES string.

The subject of the assay is Endogenous Huntingtin Protein. Put plainly: Endogenous Huntingtin Protein Assay (Meso Scale Discovery ELISA-based electrochemiluminescence). The class given is cell-based. Particulars: MSD electrochemiluminescence, Table 1. The method in brief:
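MSD electrochemiluminescence sandwich ELISA: MW1 (expanded polyQ) or MAB2166 capture antibody at 1 μg/mL, samples incubated overnight at 4° C. Detection with rabbit monoclonal #5656S then SULFO-TAG anti-rabbit antibody, each 0.25 μg/mL for 1 h at room temperature.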
The compound `CCN1CCC(c2cc(F)c3nc(-c4cc(F)c5nn(C)cc5c4)ccc3c2)CC1` [Compound 193, 6-(1-ethylpiperidin-4-yl)-8-fluoro-2-(7-fluoro-2-methyl-2H-indazol-5-yl)quinoline] showed an IC50 of at most 100 nM. In the case of `Cc1cc(-c2ccc3nc(C4CCNCC4)cnc3c2)cc2cn(C)nc12` [Compound 31, 6-(2,7-dimethyl-2H-indazol-5-yl)-2-(piperidin-4-yl)quinoxaline], the IC50 lay in the range of 100 to 500 nM. Next, `Cc1cn2nc(-c3cc(F)c4nc(C5CCNCC5)nnc4c3)cc(C)c2n1` [Compound 46, 7-(2,8-dimethylimidazo[1,2-b]pyridazin-6-yl)-5-fluoro-3-(piperidin-4-yl)-1,2,4-benzotriazine]: at most 100 nM; `CCN1[C@H](C)CC(c2cc3c(F)cc(-c4cc(C)c5nc(C)cn5n4)cc3nn2)C[C@@H]1C` (stereo partly drawn) [Compound 168, 7-(2,8-dimethylimidazo[1,2-b]pyridazin-6-yl)-3-[(2R,6S)-1-ethyl-2,6-dimethylpiperidin-4-yl]-5-fluorocinnoline]: 100 to 500 nM. Next, `Cc1cn2cc(-c3cc(F)c4cc(C5CCNCC5)nnc4c3)nc2c(C)n1` [Compound 116, 7-(6,8-dimethylimidazo[1,2-a]pyrazin-2-yl)-5-fluoro-3-(piperidin-4-yl)cinnoline]: 100 to 500 nM; `Cc1cn2cc(-c3cc4c(F)cc(C5CCNCC5)cc4nn3)cc(F)c2n1` [Compound 128, 5-fluoro-3-(8-fluoro-2-methylimidazo[1,2-a]pyridin-6-yl)-7-(piperidin-4-yl)cinnoline]: at most 100 nM. `Cc1cn2nc(-c3cc(F)c4cc(N5C[C@@H]6[C@H](C5)[C@H]6N(C)C)nnc4c3)cc(C)c2n1` [Compound 223, (1R,5S,6s)-3-[7-(2,8-dimethylimidazo[1,2-b]pyridazin-6-yl)-5-fluorocinnolin-3-yl]-N,N-dimethyl-3-azabicyclo[3.1.0]hexan-6-amine] returned an IC50 of at most 100 nM.

Turning to `Cc1cc(-c2nnc3cc(C4CCNCC4)ccc3n2)cc2cn(C)nc12` [Compound 17, 3-(2,7-dimethyl-2H-indazol-5-yl)-7-(piperidin-4-yl)-1,2,4-benzotriazine], the IC50 is at most 100 nM.

Regarding `Cn1cc2cc(-c3cc(F)c4cc(C5CCNCC5)nnc4c3)ccc2n1` [Compound 95, 5-fluoro-7-(2-methyl-2H-indazol-5-yl)-3-(piperidin-4-yl)cinnoline], the half-inhibitory concentration (IC50) was at most 100 nM. The compound `CCN1CCC(c2cc3c(F)cc(-c4cc(C)c5nc(C)cn5n4)cc3nn2)CC1` [Compound 76, 7-(2,8-dimethylimidazo[1,2-b]pyridazin-6-yl)-3-(1-ethylpiperidin-4-yl)-5-fluorocinnoline] came in with an IC50 of at most 100 nM. In the case of `CCN1CCC(c2cc3c(F)cc(-c4nc5c(C)nc(C)cc5s4)cc3nn2)CC1` [Compound 147, 7-(4,6-dimethyl[1,3]thiazolo[4,5-c]pyridin-2-yl)-3-(1-ethylpiperidin-4-yl)-5-fluorocinnoline] it was 100 to 500 nM; in that of `CCN1CCC(c2cc(F)c3nc(-c4cc(F)c5nn(C)cc5c4)ncc3c2)CC1` [Compound 202, 6-(1-ethylpiperidin-4-yl)-8-fluoro-2-(7-fluoro-2-methyl-2H-indazol-5-yl)quinazoline], at most 100 nM; in that of `CCN1CCC(c2ccc3cc(-c4cc(C)c5nc(C)cn5n4)cc(F)c3n2)CC1` [Compound 48, 6-(2,8-dimethylimidazo[1,2-b]pyridazin-6-yl)-2-(1-ethylpiperidin-4-yl)-8-fluoroquinoline], at most 100 nM.

`Cc1cc(-c2cc(F)c3cc(C4=CCNCC4)nnc3c2)cc2cn(C)nc12` [Compound 55, 7-(2,7-dimethyl-2H-indazol-5-yl)-5-fluoro-3-(1,2,3,6-tetrahydropyridin-4-yl)cinnoline]: the IC50 is at most 100 nM. Next, `Cc1cn2nc(-c3cc(F)c4cc(C5CCNCC5)nnc4c3)cc(C(C)C)c2n1` [Compound 211, 5-fluoro-7-[2-methyl-8-(propan-2-yl)imidazo[1,2-b]pyridazin-6-yl]-3-(piperidin-4-yl)cinnoline]: at most 100 nM.

The compound `CCN1CC=C(c2cc(F)c3nc(-c4cc(F)c5nn(C)cc5c4)ccc3c2)CC1` [Compound 184, 6-(1-ethyl-1,2,3,6-tetrahydropyridin-4-yl)-8-fluoro-2-(7-fluoro-2-methyl-2H-indazol-5-yl)quinoline] yielded an IC50 of at most 100 nM.

For the compound `Cc1nc2c(C)cc(-c3cc(F)c4cc(C5CCNCC5)nnc4c3)nc2o1` [Compound 148, 7-(2,7-dimethyl[1,3]oxazolo[5,4-b]pyridin-5-yl)-5-fluoro-3-(piperidin-4-yl)cinnoline], the IC50 was at most 100 nM.

Regarding `Cc1cn2nc(-c3cc(F)c4cc(C5C[C@H](C)N[C@@H](C)C5)nnc4c3)cc(C)c2n1` (stereo partly drawn) [Compound 87, 7-(2,8-dimethylimidazo[1,2-b]pyridazin-6-yl)-3-[(2S,6S)-2,6-dimethylpiperidin-4-yl]-5-fluorocinnoline], the IC50 is at most 100 nM. `CCN1CCC(c2cnc3cc(-c4cc(C)c5nc(C)cn5n4)cc(F)c3n2)CC1` [Compound 110, 6-(2,8-dimethylimidazo[1,2-b]pyridazin-6-yl)-2-(1-ethylpiperidin-4-yl)-8-fluoroquinoxaline]: the IC50 is at most 100 nM.

The compound `Cc1cn2nc(-c3cc(F)c4cc(C5CCNCC5)nnc4c3)cc(-n3ccnc3)c2n1` [Compound 194, 5-fluoro-7-[8-(1H-imidazol-1-yl)-2-methylimidazo[1,2-b]pyridazin-6-yl]-3-(piperidin-4-yl)cinnoline] showed an IC50 of 100 to 500 nM. As for `Cc1cn2nc(-c3cc(F)c4cc(C5=CCNCC5)nnc4c3)cc(C)c2n1` [Compound 225, 7-(2,8-dimethylimidazo[1,2-b]pyridazin-6-yl)-5-fluoro-3-(1,2,3,6-tetrahydropyridin-4-yl)cinnoline], the half-inhibitory concentration (IC50) was at most 100 nM. Next, `CCN1CCC(c2cc3c(F)cc(-c4nc5c(C)nc(C)cc5o4)cc3nn2)CC1` [Compound 136, 7-(4,6-dimethyl[1,3]oxazolo[4,5-c]pyridin-2-yl)-3-(1-ethylpiperidin-4-yl)-5-fluorocinnoline]: at most 100 nM; `Cc1cc(-c2cc3c(F)cc(C4=CCCNCC4)cc3nn2)cc2cn(C)nc12` [Compound 198, 3-(2,7-dimethyl-2H-indazol-5-yl)-5-fluoro-7-(2,3,6,7-tetrahydro-1H-azepin-4-yl)cinnoline]: 100 to 500 nM; `Cc1cc2nc(-c3cc(F)c4cc(C5CCNCC5)nnc4c3)sc2c(C)n1` [Compound 196, 7-(4,6-dimethyl[1,3]thiazolo[5,4-c]pyridin-2-yl)-5-fluoro-3-(piperidin-4-yl)cinnoline]: at most 100 nM. Compound `Cc1cn2nc(-c3cc(F)c4cc(N5CC[C@@H](N(C)C)C5)nnc4c3)cc(C)c2n1` [Compound 89, (3R)-1-[7-(2,8-dimethylimidazo[1,2-b]pyridazin-6-yl)-5-fluorocinnolin-3-yl]-N,N-dimethylpyrrolidin-3-amine] came in with an IC50 of at most 100 nM. With `Cc1cc(-c2ccc3nc(C4CCNCC4)nnc3c2)cc2cn(C)nc12` [Compound 16, 7-(2,7-dimethyl-2H-indazol-5-yl)-3-(piperidin-4-yl)-1,2,4-benzotriazine], the IC50 was 100 to 500 nM. With `Cc1cn2nc(-c3cc(F)c4cc(C5C[C@@H](C)N(C)[C@H](C)C5)nnc4c3)cc(C)c2n1` (stereo partly drawn) [Compound 124, 7-(2,8-dimethylimidazo[1,2-b]pyridazin-6-yl)-5-fluoro-3-[(25,6S)-1,2,6-trimethylpiperidin-4-yl]cinnoline], the concentration for half-maximal inhibition (IC50) is at most 100 nM.
